One assay relates to apo E-KO mice. Briefly: Plasma triglyceride levels in apo E-KO mice fed experimental diets. Format: in vivo. Particulars: compounds in diet.
The conditions of assay [1]: in vivo; cited from earlier work.

Experimental for apo E-KO mice: Thus, as outlined below, 40 male apo E-KO mice were divided into 5 groups of 8 with similar mean plasma cholesterol level and body weight. The animals were fed with the experimental diets for 14 weeks.
The animals were bled from the tail at base line and during the experiment for measurement of plasma lipid levels. At the end of the study, the mice were sacrificed using CO2 gas and taking blood from the heart.
Plasma triglyceride levels were measured in clinical lab At St. Paul's Hospital.

Consider `O=C(O)c1cccnc1` [nicotinic acid], for which the “effect on plasma triglyceride levels” value in the assay with apo E-KO mice is “reduced triglyceride levels”. Besides, in assay [1], the “elevation of the "good" HDL cholesterol” value is listed as 20-30%.

The values are drawn from patent EP1189923B1, “AROMATIC AND HETEROCYCLIC DERIVATIVES OF PHYTOSTEROLS AND/OR PHYTOSTANOLS FOR USE IN TREATING OR PREVENTING CARDIOVASCULAR DISEASE” (Forbes Medi-Tech Inc., priority 1999, dated 2000).
